{"source": "the NIST ThermoML archive (doi:10.1021/acs.jced.5b01007)", "conditions": "Fluid (supercritical or subcritical phases), Frequency=8 MHz, Pulse-echo method", "note": "± gives the expanded uncertainty stated by the source."}
{"compound": "O=O", "note": "[oxygen]", "values": [{"measurement": "speed of sound", "setting": "299.96 K, 14860 kPa", "value": "352.65 ± 0.38", "unit": "m/s"}, {"measurement": "speed of sound", "setting": "299.97 K, 9920 kPa", "value": "340.22 ± 0.38", "unit": "m/s"}, {"measurement": "speed of sound", "setting": "299.97 K, 20050 kPa", "value": "370.99 ± 1.6", "unit": "m/s"}, {"measurement": "speed of sound", "setting": "299.97 K, 25030 kPa", "value": "392.82 ± 1.9", "unit": "m/s"}, {"measurement": "speed of sound", "setting": "299.97 K, 29960 kPa", "value": "417.33 ± 2.1", "unit": "m/s"}, {"measurement": "speed of sound", "setting": "299.97 K, 34960 kPa", "value": "443.87 ± 2.2", "unit": "m/s"}, {"measurement": "speed of sound", "setting": "299.97 K, 39960 kPa", "value": "471.2 ± 2.2", "unit": "m/s"}, {"measurement": "speed of sound", "setting": "299.97 K, 45030 kPa", "value": "498.92 ± 2.2", "unit": "m/s"}, {"measurement": "speed of sound", "setting": "299.97 K, 50010 kPa", "value": "525.82 ± 2.2", "unit": "m/s"}, {"measurement": "speed of sound", "setting": "299.97 K, 55140 kPa", "value": "552.86 ± 2.1", "unit": "m/s"}, {"measurement": "speed of sound", "setting": "299.97 K, 60160 kPa", "value": "578.47 ± 2.1", "unit": "m/s"}, {"measurement": "speed of sound", "setting": "299.97 K, 64960 kPa", "value": "602.28 ± 2", "unit": "m/s"}, {"measurement": "speed of sound", "setting": "299.97 K, 69690 kPa", "value": "624.95 ± 2", "unit": "m/s"}, {"measurement": "speed of sound", "setting": "300 K, 74030 kPa", "value": "645.07 ± 1.9", "unit": "m/s"}, {"measurement": "speed of sound", "setting": "349.98 K, 8030 kPa", "value": "367.01 ± 0.39", "unit": "m/s"}, {"measurement": "speed of sound", "setting": "349.98 K, 29990 kPa", "value": "433.29 ± 1.6", "unit": "m/s"}, {"measurement": "speed of sound", "setting": "349.98 K, 49900 kPa", "value": "518.73 ± 1.8", "unit": "m/s"}, {"measurement": "speed of sound", "setting": "349.98 K, 78850 kPa", "value": "641.85 ± 1.7", "unit": "m/s"}, {"measurement": "speed of sound", "setting": "349.99 K, 10070 kPa", "value": "370.9 ± 0.39", "unit": "m/s"}, {"measurement": "speed of sound", "setting": "349.99 K, 14980 kPa", "value": "382.53 ± 0.4", "unit": "m/s"}, {"measurement": "speed of sound", "setting": "349.99 K, 19640 kPa", "value": "396.03 ± 0.4", "unit": "m/s"}, {"measurement": "speed of sound", "setting": "349.99 K, 24980 kPa", "value": "414.2 ± 1.5", "unit": "m/s"}, {"measurement": "speed of sound", "setting": "349.99 K, 35080 kPa", "value": "454.09 ± 1.7", "unit": "m/s"}, {"measurement": "speed of sound", "setting": "349.99 K, 45020 kPa", "value": "497.15 ± 1.8", "unit": "m/s"}, {"measurement": "speed of sound", "setting": "349.99 K, 55110 kPa", "value": "541.66 ± 1.8", "unit": "m/s"}, {"measurement": "speed of sound", "setting": "349.99 K, 59910 kPa", "value": "562.59 ± 1.8", "unit": "m/s"}, {"measurement": "speed of sound", "setting": "349.99 K, 68690 kPa", "value": "600.07 ± 1.7", "unit": "m/s"}, {"measurement": "speed of sound", "setting": "350.03 K, 40050 kPa", "value": "475.39 ± 1.8", "unit": "m/s"}, {"measurement": "speed of sound", "setting": "350.03 K, 64930 kPa", "value": "584.11 ± 1.8", "unit": "m/s"}, {"measurement": "speed of sound", "setting": "399.05 K, 83180 kPa", "value": "648.15 ± 1.5", "unit": "m/s"}, {"measurement": "speed of sound", "setting": "399.06 K, 19900 kPa", "value": "421.58 ± 0.42", "unit": "m/s"}, {"measurement": "speed of sound", "setting": "399.07 K, 74590 kPa", "value": "617.2 ± 1.6", "unit": "m/s"}, {"measurement": "speed of sound", "setting": "399.07 K, 79990 kPa", "value": "636.78 ± 1.5", "unit": "m/s"}, {"measurement": "speed of sound", "setting": "399.08 K, 34890 kPa", "value": "469.6 ± 1.5", "unit": "m/s"}, {"measurement": "speed of sound", "setting": "399.08 K, 39970 kPa", "value": "487.82 ± 1.5", "unit": "m/s"}, {"measurement": "speed of sound", "setting": "399.08 K, 44980 kPa", "value": "506.29 ± 1.6", "unit": "m/s"}, {"measurement": "speed of sound", "setting": "399.08 K, 54970 kPa", "value": "543.88 ± 1.6", "unit": "m/s"}, {"measurement": "speed of sound", "setting": "399.08 K, 60070 kPa", "value": "563.14 ± 1.6", "unit": "m/s"}, {"measurement": "speed of sound", "setting": "399.08 K, 64900 kPa", "value": "581.28 ± 1.6", "unit": "m/s"}, {"measurement": "speed of sound", "setting": "399.08 K, 70100 kPa", "value": "600.65 ± 1.6", "unit": "m/s"}, {"measurement": "speed of sound", "setting": "399.09 K, 4960 kPa", "value": "388.03 ± 0.4", "unit": "m/s"}, {"measurement": "speed of sound", "setting": "399.09 K, 6020 kPa", "value": "389.77 ± 0.4", "unit": "m/s"}, {"measurement": "speed of sound", "setting": "399.09 K, 7950 kPa", "value": "393.26 ± 0.4", "unit": "m/s"}, {"measurement": "speed of sound", "setting": "399.09 K, 25010 kPa", "value": "436.72 ± 1.3", "unit": "m/s"}, {"measurement": "speed of sound", "setting": "399.09 K, 29900 kPa", "value": "452.47 ± 1.4", "unit": "m/s"}, {"measurement": "speed of sound", "setting": "399.09 K, 50090 kPa", "value": "525.43 ± 1.6", "unit": "m/s"}, {"measurement": "speed of sound", "setting": "399.1 K, 15010 kPa", "value": "408.72 ± 0.41", "unit": "m/s"}, {"measurement": "speed of sound", "setting": "399.11 K, 9980 kPa", "value": "397.34 ± 0.4", "unit": "m/s"}, {"measurement": "speed of sound", "setting": "449.79 K, 87520 kPa", "value": "660.32 ± 1.4", "unit": "m/s"}, {"measurement": "speed of sound", "setting": "449.87 K, 80010 kPa", "value": "636.12 ± 1.4", "unit": "m/s"}, {"measurement": "speed of sound", "setting": "449.88 K, 75270 kPa", "value": "620.61 ± 1.4", "unit": "m/s"}, {"measurement": "speed of sound", "setting": "449.88 K, 85020 kPa", "value": "652.33 ± 1.4", "unit": "m/s"}, {"measurement": "speed of sound", "setting": "449.89 K, 65180 kPa", "value": "587.16 ± 1.4", "unit": "m/s"}, {"measurement": "speed of sound", "setting": "449.89 K, 70120 kPa", "value": "603.58 ± 1.4", "unit": "m/s"}, {"measurement": "speed of sound", "setting": "449.9 K, 55090 kPa", "value": "553.54 ± 1.4", "unit": "m/s"}, {"measurement": "speed of sound", "setting": "449.9 K, 60070 kPa", "value": "570.12 ± 1.4", "unit": "m/s"}, {"measurement": "speed of sound", "setting": "449.93 K, 35030 kPa", "value": "488.6 ± 1.3", "unit": "m/s"}, {"measurement": "speed of sound", "setting": "449.93 K, 40050 kPa", "value": "504.35 ± 1.4", "unit": "m/s"}, {"measurement": "speed of sound", "setting": "449.94 K, 6010 kPa", "value": "414.33 ± 0.41", "unit": "m/s"}, {"measurement": "speed of sound", "setting": "449.94 K, 9970 kPa", "value": "422.01 ± 0.41", "unit": "m/s"}, {"measurement": "speed of sound", "setting": "449.94 K, 15000 kPa", "value": "433.26 ± 0.42", "unit": "m/s"}, {"measurement": "speed of sound", "setting": "449.94 K, 20010 kPa", "value": "445.6 ± 1.1", "unit": "m/s"}, {"measurement": "speed of sound", "setting": "449.94 K, 24940 kPa", "value": "458.85 ± 1.2", "unit": "m/s"}, {"measurement": "speed of sound", "setting": "449.94 K, 30000 kPa", "value": "473.4 ± 1.3", "unit": "m/s"}, {"measurement": "speed of sound", "setting": "449.94 K, 45090 kPa", "value": "520.58 ± 1.4", "unit": "m/s"}, {"measurement": "speed of sound", "setting": "449.94 K, 49910 kPa", "value": "536.52 ± 1.4", "unit": "m/s"}, {"measurement": "speed of sound", "setting": "449.95 K, 8010 kPa", "value": "418.16 ± 0.41", "unit": "m/s"}, {"measurement": "speed of sound", "setting": "449.95 K, 88050 kPa", "value": "662.01 ± 1.4", "unit": "m/s"}, {"measurement": "speed of sound", "setting": "498.83 K, 69940 kPa", "value": "610.55 ± 1.3", "unit": "m/s"}, {"measurement": "speed of sound", "setting": "498.89 K, 60010 kPa", "value": "580.54 ± 1.3", "unit": "m/s"}, {"measurement": "speed of sound", "setting": "498.89 K, 65000 kPa", "value": "595.63 ± 1.3", "unit": "m/s"}, {"measurement": "speed of sound", "setting": "498.9 K, 95000 kPa", "value": "684.96 ± 1.3", "unit": "m/s"}, {"measurement": "speed of sound", "setting": "498.91 K, 74960 kPa", "value": "625.69 ± 1.3", "unit": "m/s"}, {"measurement": "speed of sound", "setting": "498.91 K, 90000 kPa", "value": "670.28 ± 1.3", "unit": "m/s"}, {"measurement": "speed of sound", "setting": "498.91 K, 100060 kPa", "value": "699.53 ± 1.3", "unit": "m/s"}, {"measurement": "speed of sound", "setting": "498.92 K, 79990 kPa", "value": "640.74 ± 1.3", "unit": "m/s"}, {"measurement": "speed of sound", "setting": "498.93 K, 84890 kPa", "value": "655.27 ± 1.3", "unit": "m/s"}, {"measurement": "speed of sound", "setting": "498.94 K, 10000 kPa", "value": "444.64 ± 0.43", "unit": "m/s"}, {"measurement": "speed of sound", "setting": "498.99 K, 40010 kPa", "value": "521.13 ± 1.2", "unit": "m/s"}, {"measurement": "speed of sound", "setting": "499 K, 29910 kPa", "value": "492.81 ± 1.2", "unit": "m/s"}, {"measurement": "speed of sound", "setting": "499 K, 34730 kPa", "value": "506.11 ± 1.2", "unit": "m/s"}, {"measurement": "speed of sound", "setting": "499 K, 44900 kPa", "value": "535.41 ± 1.3", "unit": "m/s"}, {"measurement": "speed of sound", "setting": "499.01 K, 24900 kPa", "value": "479.52 ± 1.1", "unit": "m/s"}, {"measurement": "speed of sound", "setting": "499.02 K, 14940 kPa", "value": "455.31 ± 0.43", "unit": "m/s"}, {"measurement": "speed of sound", "setting": "499.03 K, 4920 kPa", "value": "434.71 ± 0.42", "unit": "m/s"}, {"measurement": "speed of sound", "setting": "499.03 K, 5910 kPa", "value": "436.52 ± 0.42", "unit": "m/s"}, {"measurement": "speed of sound", "setting": "499.03 K, 7820 kPa", "value": "440.23 ± 0.42", "unit": "m/s"}, {"measurement": "speed of sound", "setting": "499.03 K, 49930 kPa", "value": "550.29 ± 1.3", "unit": "m/s"}, {"measurement": "speed of sound", "setting": "499.03 K, 54810 kPa", "value": "564.89 ± 1.3", "unit": "m/s"}, {"measurement": "speed of sound", "setting": "499.04 K, 20070 kPa", "value": "467.39 ± 1.1", "unit": "m/s"}]}
